The test system of one experiment is NSCLC cell lines. In words: Drug sensitivity (growth inhibition, MTS assay) of epithelial versus mesenchymal NSCLC cell lines. It counts as cell-based. The source says:
(§1) Average values were used for analysis as described. […] Chou T. C., et al., Quantitative Analysis of Dose-Effect Relationships: The Combined Effects of Multiple Drugs or Enzyme Inhibitors. Adv Enzyme Regul.
The EMT signature was derived in 54 DNA fingerprinted NSCLC cell lines profiled on Affymetrix U133A, B, and Plus2.0 arrays and tested on the Illumina WGv2 and WGv3 platforms and in an independent set of head and neck cancer lines (HNC). E-cadherin and other protein levels were quantified by reverse phase protein array and correlated with the first principal component of the EMT signature. IC50s were determined for NSCLC cell lines by MTS assay. Response to erlotinib was evaluated in patients treated in the BATTLE clinical trial using eight-week disease […] and progression free survival.

Experiment [1] has as its system Cells expressing high levels of Axl. Put plainly: Proliferation of six mesenchymal cell lines expressing high levels of Axl (summary). Format: cell-based. The settings on record: single agent.
Source text: as §1

The subject of another experiment is H157. Put plainly: Proliferation, CellTiter-Glo Luminescent Cell Viability. It counts as cell-based. The settings on record: Homo sapiens, NCI-H157, single agent.
Source text: as §1

In a further experiment the test system is H460. The experiment is described as above. Format: cell-based. The settings on record: Homo sapiens, NCI-H460, single agent.
Source text: as §1

The subject of another experiment is A549. The description is as above. The settings on record: Homo sapiens, single agent. It counts as cell-based.
Source text: as §1

For another experiment, the system named is H1299. Described as above. It counts as cell-based. The following applies: Homo sapiens, NCI-H1299, single agent.
Source text: as §1

The next experiment relates to Calu-1. The description is as above. It counts as cell-based. The following applies: Homo sapiens, single agent.
Source text: as §1

Another experiment has as its system H2882. Described as above. Format: cell-based. The settings on record: NCI-H2882, single agent.
Source text: as §1

For a further experiment, the system named is NSCLC patients. In words: BATTLE clinical trial, 8-week disease control and progression-free survival. It counts as in vivo, human. From the text: BATTLE (Biomarker-integrated Approaches of Targeted Therapy for Lung Cancer Elimination) was a randomized, biomarker-based clinical trial for patients with recurrent or metastatic NSCLC in the second-line setting (Trial registration ID: NCT00409968). Kim E. S. H. R., The BATTLE Trial: Personalizing Therapy for Lung Cancer, Cancer Discovery 1:43-51 (2011). mRNA from tumors obtained via core-needle biopsy at enrollment were profiled on Human Gene 1.0 ST array, Affymetrix. Array results were deposited in the GEO repository (GSE33072).
We used pretreatment gene expression profiles (Affymetrix […]) from 101 chemo-refractory patients in our Biomarkers-Integrated Approaches of Targeted Therapy for Lung Cancer Elimination (BATTLE) treated with E, E+bexarotene (EB), sorafenib (S), or vandetanib (V). 24 cases of with EGFR & KRAS tumors treated with E or EB were compared to train the signature (two-sided t-test), using the primary end-point of the trial[8-week disease control (8 with DC)]. Principal component (PC) analysis and a logistic regression model were used to develop the signature. Gene expression profiles from 108 NSCLC cell lines (Illumina), with available E IC50 (N=94) and DNA methylation profiling (N=66, Illumina), were used for in vitro studies.

Read-outs that look alike come from different tables or passages of the source.

On to `Nc1ncnc2c1nc(N)n2[C@@H]1O[C@H](CO)[C@@H](O)[C@H]1O` [8-amino-adenosine], for which the “Fold higher mean IC50 in mesenchymal versus epithelial cell lines” value (shortened to “Fold higher mean IC50”) in the experiment with NSCLC cell lines (all NSCLC cell lines) is on record as 1.7 fold.
Regarding `C#Cc1cccc(Nc2ncnc3cc(OCCOC)c(OCCOC)cc23)c1` [Erlotinib, erlotinib], the IC50 in experiment [1] (read-out: IC50 range across cell lines) is at least 13.5 µM; in experiment [1] (read-out: Mean IC50 across cell lines), 77 µM; in the experiment on H157 it was 48.5 µM; in the experiment on H460 it was over 100 µM; in the experiment with A549 it was 13.5 µM; in the experiment with H1299, over 100 µM. The IC50 in the experiment on Calu-1 and in the experiment on H2882 was over 100 µM each time. For the same compound, the “8-week DC rate” value in the experiment with NSCLC patients (5-gene signature-negative group) is given as 0%; in the experiment on NSCLC patients (5-gene signature-positive group), 83%. Further, the “Median PFS” value with NSCLC patients (signature-negative group) was determined as 7.2 weeks; in the experiment with NSCLC patients (signature-positive group) it was 12.5 weeks. The “Progression-free survival hazard ratio” value with NSCLC patients (signature-positive versus signature-negative group, 95% CI 0.03-0.46) is given as 0.12. Also, the “Patients with 8-week disease control (DC)” value with NSCLC patients (wildtype EGFR and KRAS patients with mesenchymal signatures) was 1/5. For the same compound, the “Sensitivity of mesenchymal cells” value with NSCLC cell lines (SGI-7079 versus erlotinib, p<0.001 by Wilcoxon test) is listed as “uniformly resistant”. The “Fold higher mean IC50” value was found to be 3.7 fold in the experiment on NSCLC cell lines (all NSCLC cell lines); 2 fold in the experiment on NSCLC cell lines (subset with wild-type EGFR and wild-type KRAS).
For the compound `CS(=O)(=O)N1CCN(Cc2cc3nc(-c4cccc5[nH]ncc45)nc(N4CCOCC4)c3s2)CC1` [GDC0941], the “Fold higher mean IC50” value in the experiment with NSCLC cell lines (all NSCLC cell lines) is 1.9 fold.
As to `NC1(c2ccc(-c3nc4ccn5c(=O)[nH]nc5c4cc3-c3ccccc3)cc2)CCC1` [MK2206], the “Fold higher mean IC50” value in the experiment with NSCLC cell lines (all NSCLC cell lines) is on record as 1.5 fold.
On the same count and under the same terms, the value for `CNC(=O)c1cc(Oc2ccc(NC(=O)Nc3ccc(Cl)c(C(F)(F)F)c3)cc2)ccn1` [sorafenib] was “not more resistant”.

The values above are taken from patent US20140155397A1, “EMT SIGNATURES AND PREDICTIVE MARKERS AND METHOD OF USING THE SAME” (Board of Regents, priority 2011, published 2014).
